Data as given in article PMC2062997, “Effects of impaired renal function on the pharmacokinetics of raltitrexed (Tomudex ZD1694)” (British Journal of Cancer, 1998).

How the values were obtained:
[1] = Safety: adverse events and WHO-graded toxicity in cancer patients; type: in vivo
Procedure: British Journal of Cancer (1 998) 78(9). 1188-1193 C 1998 Cancer Research Campaign Effects of impaired renal function on the pharmacokinetics of raltitrexed (Tomudex ZDI 694) I Judson', T Maughan2, P Beale', J Primrose3, P Hoskin4, J HanweIll, C Berry1, M Walker5 and F Sutcliffe5 lInstitute of Cancer Research. Sutton, Surrey SM2 5NG, UK; Welindre Hospital, Whitchurch. Cardiff CF4, UK; 3Souftampton General Hospital, Southampton S09 4XY. UK: 'Mount Vernon Hospital, Middlesex HA6 2RN. UK; 5Zeneca Pharmaceutcals Macclesfield. Cheshire SK10 4TG. UK Summary This open-label, non-randomized, parallel-group trial investigated the pharmacokinetics of raltitrexed (Tomudex, formerly ZD1 694) after a single intravenous dose of 3.0 mg m-2, comparing eight cancer patients with mild to moderate renal impairment (creatinine clearance 25-65 ml min-') with eight cancer patients with normal renal function (creatinine clearance >65 ml min-'). The primary end points were area under the plasma raltitrexed concentration-vime curve from the start of the infusion to the last determined concentration (AUCo_) and AUC to infinity (AUCo); secondary end points were peak corncentrations of ralftitrexed (C,n,) and elimination half-life (t,>). The groups were compared statistically using analysis of covariance. The AUCs were greater for patients with renal impairment than for patients with normal renal function (2452.2 compared with 1247.3 ng h ml-' for AUCo._. (ratio 1.97; 95% Cl 1.36-2.84); 2961.5 compared with 1457.0 ng h ml-' for AUCo_ (ratio 2.03; 1.25-3.29). These differences were statistically significant (P = 0.002 and P = 0.008 for AUC, and AUCo_ respectively. Terminal half-life was longer for the renally impaired patients (271.2 compared with 143.3; P = 0.030). There was no significant statistical difference between the groups for C, (652.9 compared with 564.7 ng ml-' for patients with impaired and normal renal function respectively: ratio 1.16; 0.91-1.46; P=0.204). There was a clear relationship between raltfitrexed clearance and creatinine clearance. Adverse events, severe (WHO grade 3 or 4) toxicity and hospitalization due to adverse events were more frequent in the group with renal impairment. Therefore, a reduction in ralftitrexed dose and increased interval between doses is recommended for patients with mild to moderate renal impairment. Keywords: pharmacokinetics; thymidylate synthase; phase I trial; raltitrexed; renal impairment Raltitrexed (Tomudex. ZD1694: Zeneca Limited) is a cytotoxic agent w-hich acts by direct and specific inhibition of thymidydlate synthase. the enzyme catalysing a critical step in de novo DNA synthesis. i.e. the production of thymidine monophosphate from deoxvuridine monophosphate. […]

[2] = Single-dose plasma pharmacokinetics of raltitrexed in cancer patients (radioimmunoassay, three-compartment model); type: in vivo, human
Procedure: British Journal of Cancer (1 998) 78(9). 1188-1193 C 1998 Cancer Research Campaign Effects of impaired renal function on the pharmacokinetics of raltitrexed (Tomudex ZDI 694) I Judson', T Maughan2, P Beale', J Primrose3, P Hoskin4, J HanweIll, C Berry1, M Walker5 and F Sutcliffe5 lInstitute of Cancer Research. Sutton, Surrey SM2 5NG, UK; Welindre Hospital, Whitchurch. Cardiff CF4, UK; 3Souftampton General Hospital, Southampton S09 4XY. UK: 'Mount Vernon Hospital, Middlesex HA6 2RN. UK; 5Zeneca Pharmaceutcals Macclesfield. Cheshire SK10 4TG. UK Summary This open-label, non-randomized, parallel-group trial investigated the pharmacokinetics of raltitrexed (Tomudex, formerly ZD1 694) after a single intravenous dose of 3.0 mg m-2, comparing eight cancer patients with mild to moderate renal impairment (creatinine clearance 25-65 ml min-') with eight cancer patients with normal renal function (creatinine clearance >65 ml min-'). The primary end points were area under the plasma raltitrexed concentration-vime curve from the start of the infusion to the last determined concentration (AUCo_) and AUC to infinity (AUCo); secondary end points were peak corncentrations of ralftitrexed (C,n,) and elimination half-life (t,>). The groups were compared statistically using analysis of covariance. The AUCs were greater for patients with renal impairment than for patients with normal renal function (2452.2 compared with 1247.3 ng h ml-' for AUCo._. (ratio 1.97; 95% Cl 1.36-2.84); 2961.5 compared with 1457.0 ng h ml-' for AUCo_ (ratio 2.03; 1.25-3.29). These differences were statistically significant (P = 0.002 and P = 0.008 for AUC, and AUCo_ respectively. Terminal half-life was longer for the renally impaired patients (271.2 compared with 143.3; P = 0.030). There was no significant statistical difference between the groups for C, (652.9 compared with 564.7 ng ml-' for patients with impaired and normal renal function respectively: ratio 1.16; 0.91-1.46; P=0.204). There was a clear relationship between raltfitrexed clearance and creatinine clearance. Adverse events, severe (WHO grade 3 or 4) toxicity and hospitalization due to adverse events were more frequent in the group with renal impairment. Therefore, a reduction in ralftitrexed dose and increased interval between doses is recommended for patients with mild to moderate renal impairment. Keywords: pharmacokinetics; thymidylate synthase; phase I trial; raltitrexed; renal impairment Raltitrexed (Tomudex. ZD1694: Zeneca Limited) is a cytotoxic agent w-hich acts by direct and specific inhibition of thymidydlate synthase. the enzyme catalysing a critical step in de novo DNA synthesis. i.e. the production of thymidine monophosphate from deoxvuridine monophosphate. Some clinically effective anti- cancer agents. such as 5-fluorouracil and methotrexate. act in part by inhibiting thymidylate synthase but also have effects on other enzyme pathways. xvhich may contribute to their anti-tumour activity and obserned toxicity profiles. Raltitrexed inhibits thymidylate synthase selectively in vitro (Jackman et al. 1991). […] The poly- glutamates are retained in cells and cause prolonged inhibition of th midv late synthase. which leads to DNA fragmentation and cell death. […] The mean apparent half-life of the terminal (gamma) phase (tl, ,) was 50-lOO h (Clarke et al. 1996). This prolonged t1, may represent hydrolysis of the polvalutamated Received 17 November 1997 Revised 4 Apnl 1998 Accepted 14 Apnl 1998 Correspondence to: IR Judson, CRC Centre for Cancer Therapeutics. The Institute of Cancer Research. Block E. 15 Cotswold Road. Belmont. Sutton. Surrey SM2 5NG. UK forms and release of raltitrexed from tissues into the circulation. and allow s the druc to be administered as a single dose once ev er 3 weeks. In the phase I trial. a dose and schedule of 3.0mg m-' every 3 weeks was identified as suitable for phase H inxvestigation. […]

## Cc1nc2ccc(CN(C)c3ccc(C(=O)N[C@@H](CCC(=O)O)C(=O)O)s3)cc2c(=O)[nH]1 [raltitrexed]
[1]; both, human, in vivo
  Pain, number of patients: 3 patients
  WHO grade 3 or 4 drug-related toxicity: No WHO grade 3 or 4 drug-related toxicity was reported
  WHO grade 3 or 4 toxicity: grade 3 or 4 toxicity was observed
[1]; renally impaired patient: Cr-EDTA clearance 28, calculated creatinine clearance 23.2 ml min-1
  Serious adverse events: Death
[2]; 95% CI 0.91-1.46, P = 0.204
  Cmax estimated ratio (impaired:normal renal function): 1.16
[2]; 95% CI 1.25-3.29, P = 0.008
  AUC0-infinity estimated ratio (impaired:normal renal function): 2.03
[2]; 95% CI 1.36-2.84, P = 0.002
  AUC0-tldc estimated ratio (impaired:normal renal function): 1.97
[2]; both sexes, human, in vivo, AUC0-tldc, adjusted geometric least squares mean
  AUC: 2450 ng·h/mL
[2]; both sexes, human, in vivo, Cmax, adjusted geometric least squares mean
  Cmax: 565 ng/mL
[2]; both sexes, human, in vivo, iv, 3 mg, Cmax (mean; SD)
  Cmax: 676 ng/mL
[2]; both sexes, human, in vivo, iv, tmax (median and range)
  Tmax: 0.267 h
[2]; both sexes, human, in vivo, t1/2 gamma (terminal half-life), adjusted least squares mean
  half-life: 271 h
[2]; both, human, in vivo
  Cmax, adjusted geometric least squares mean: 652.9 ng/mL
  t1/2 gamma (terminal half-life), adjusted least squares mean: 143.3 h
[2]; both, human, in vivo, iv
  tmax (median and range): 20 (10-30) min
[2]; human, in vivo, iv, 3 mg
  Cmax (mean; SD): 567.1 ? 62.7 ng ml-1
